Data taken from patent US9145411B2, “Substituted amino-pyrimidine derivatives” (Asana Biosciences, LLC, priority 2012, dated 2015).

Tests used:
PC3 cells = experiment: XTT assay for cell viability, PC3 cells; type: cell-based; details: Homo sapiens, PC-3; PC3 cell proliferation, 96 hours
Summary of the method: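 Log-phase PC3 cells (1000/well) were seeded for 24 h, then exposed to serially diluted compounds (DMSO dilutions) for 96 h. Viability was measured by XTT dye conversion at 37 °C, with absorbance read at 465 nm. EC50 was obtained from a sigmoidal dose-response fit.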

pAkt(S473) = experiment: In-cell Western assay, pAkt(S473), PC3 cells; type: cell-based; details: Homo sapiens, PC-3, 2 hours incubation
Description: (§1) Cells from human prostate cancer cell line PC3 (American Type Culture Collection (ATCC), Manassas, Va. 20108 USA) were seeded at an optimal density of 22,000 cell/well in 96-well plates containing Ham's F12K medium (90 μL) and incubated overnight. The compound dilutions were carried out in 100% DMSO followed by a dilution in the medium. Test compounds were added in serial dilutions to the wells and incubated for 2 hours. The cells were washed and fixed with 4% paraformaldehyde. After incubation at room temperature for 1 hour in the dark, blocking was done for 2 hours at room temperature. Primary antibodies for pAkt(S473) ([…] phosphorylated at serine 473), pAkt(T308) (Akt phosphorylated at threonine 308) and for pS6RP (S235/236) (phosphorylated at serine 235/236) (commercially available from Cell Signaling Technology®, whose protocol was followed for the in-cell western assay, were diluted to the required concentration and added to the corresponding wells followed by overnight incubation at 4° C. Eu-labeled rabbit (PE) (Perkin-Elmer USA catalog #AD0106) secondary antibody was added and incubated for 2 hours at room temperature. Delfia® enhancement solution (cat #1244-105, Perkin Elmer USA) was subsequently added to the plate before taking the reading at 615 nm with excitation wavelength of 340 nm, after which 0.5 μg/mL of Hoechst® 33258 dye (Catalog #86140-5, Sigma) was added to the plate and fluorescence emission was read at 460 nm with 355 nm excitation, to evaluate the correction factor. IC50 values were calculated using a sigmoidal dose-response curve fit in GraphPad Prism® v5 software.

pAkt(T308) = experiment: In-cell Western assay, pAkt(T308), PC3 cells; type: cell-based; details: Homo sapiens, PC-3, 2 hours incubation
Description: as §1

mTOR kinase = biological target: T1, mTOR kinase (Homo sapiens, UniProt P42345); experiment: mTOR kinase TR-FRET assay; type: biochemical; details: 20 μM ATP
T1 construct: purchased Millipore, USA
T1 sequence (P42345 1362-2549 limits assumed): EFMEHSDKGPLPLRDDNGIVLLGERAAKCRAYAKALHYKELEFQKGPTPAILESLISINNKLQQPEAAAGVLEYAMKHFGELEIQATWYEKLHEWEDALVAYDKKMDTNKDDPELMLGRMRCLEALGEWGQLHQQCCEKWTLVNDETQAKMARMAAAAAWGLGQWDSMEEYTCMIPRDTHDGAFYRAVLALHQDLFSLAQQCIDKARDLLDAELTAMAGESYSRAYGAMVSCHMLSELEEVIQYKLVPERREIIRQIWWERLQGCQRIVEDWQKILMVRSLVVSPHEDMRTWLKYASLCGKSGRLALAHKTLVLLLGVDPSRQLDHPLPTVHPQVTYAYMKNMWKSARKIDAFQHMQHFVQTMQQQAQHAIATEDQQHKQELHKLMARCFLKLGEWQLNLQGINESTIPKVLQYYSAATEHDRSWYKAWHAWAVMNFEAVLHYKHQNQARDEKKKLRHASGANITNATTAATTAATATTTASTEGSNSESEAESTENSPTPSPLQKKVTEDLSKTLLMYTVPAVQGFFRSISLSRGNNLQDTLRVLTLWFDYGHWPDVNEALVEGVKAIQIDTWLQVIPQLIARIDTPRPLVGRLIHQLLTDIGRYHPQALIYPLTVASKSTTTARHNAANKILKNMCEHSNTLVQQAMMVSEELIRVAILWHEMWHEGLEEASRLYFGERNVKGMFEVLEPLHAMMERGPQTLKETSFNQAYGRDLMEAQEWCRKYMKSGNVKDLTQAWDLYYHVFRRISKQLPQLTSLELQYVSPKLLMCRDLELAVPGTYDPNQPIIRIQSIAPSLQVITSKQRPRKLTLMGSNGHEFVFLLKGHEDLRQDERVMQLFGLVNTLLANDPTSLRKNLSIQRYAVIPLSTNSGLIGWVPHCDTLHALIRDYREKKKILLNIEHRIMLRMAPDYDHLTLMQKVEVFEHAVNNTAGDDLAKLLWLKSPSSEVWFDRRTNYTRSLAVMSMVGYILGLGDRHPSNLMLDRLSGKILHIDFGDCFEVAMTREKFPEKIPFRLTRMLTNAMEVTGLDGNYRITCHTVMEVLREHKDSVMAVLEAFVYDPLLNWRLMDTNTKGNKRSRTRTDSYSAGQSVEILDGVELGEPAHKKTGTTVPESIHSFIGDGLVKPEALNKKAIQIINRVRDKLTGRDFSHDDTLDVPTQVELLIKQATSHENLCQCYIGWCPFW
Summary of the method: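 Test compounds were pre-incubated 60 min with mTOR (5 ng), then ULight-p70 S6K (Thr389) peptide (50 nM) and ATP (20 μM) were added in HEPES 50 mM pH 7.5, EGTA, MnCl2 3 mM. After 60 min at room temperature, EDTA stop and Eu-anti-phospho antibody TR-FRET (665/615 nm) gave IC50 from sigmoidal variable-slope fits.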

PI3Kα (wild-type) = biological target: T2, PI3Kα (wild-type) (Homo sapiens, UniProt P42336); experiment: PI3 Kinase TR-FRET assay, PI3Kα (wild-type); type: biochemical; details: wild-type P110/P85α, 10 μM ATP
T2 construct: made in house; host or cells: SF9 insect cells
T2 sequence (P42336 whole entry, species assumed): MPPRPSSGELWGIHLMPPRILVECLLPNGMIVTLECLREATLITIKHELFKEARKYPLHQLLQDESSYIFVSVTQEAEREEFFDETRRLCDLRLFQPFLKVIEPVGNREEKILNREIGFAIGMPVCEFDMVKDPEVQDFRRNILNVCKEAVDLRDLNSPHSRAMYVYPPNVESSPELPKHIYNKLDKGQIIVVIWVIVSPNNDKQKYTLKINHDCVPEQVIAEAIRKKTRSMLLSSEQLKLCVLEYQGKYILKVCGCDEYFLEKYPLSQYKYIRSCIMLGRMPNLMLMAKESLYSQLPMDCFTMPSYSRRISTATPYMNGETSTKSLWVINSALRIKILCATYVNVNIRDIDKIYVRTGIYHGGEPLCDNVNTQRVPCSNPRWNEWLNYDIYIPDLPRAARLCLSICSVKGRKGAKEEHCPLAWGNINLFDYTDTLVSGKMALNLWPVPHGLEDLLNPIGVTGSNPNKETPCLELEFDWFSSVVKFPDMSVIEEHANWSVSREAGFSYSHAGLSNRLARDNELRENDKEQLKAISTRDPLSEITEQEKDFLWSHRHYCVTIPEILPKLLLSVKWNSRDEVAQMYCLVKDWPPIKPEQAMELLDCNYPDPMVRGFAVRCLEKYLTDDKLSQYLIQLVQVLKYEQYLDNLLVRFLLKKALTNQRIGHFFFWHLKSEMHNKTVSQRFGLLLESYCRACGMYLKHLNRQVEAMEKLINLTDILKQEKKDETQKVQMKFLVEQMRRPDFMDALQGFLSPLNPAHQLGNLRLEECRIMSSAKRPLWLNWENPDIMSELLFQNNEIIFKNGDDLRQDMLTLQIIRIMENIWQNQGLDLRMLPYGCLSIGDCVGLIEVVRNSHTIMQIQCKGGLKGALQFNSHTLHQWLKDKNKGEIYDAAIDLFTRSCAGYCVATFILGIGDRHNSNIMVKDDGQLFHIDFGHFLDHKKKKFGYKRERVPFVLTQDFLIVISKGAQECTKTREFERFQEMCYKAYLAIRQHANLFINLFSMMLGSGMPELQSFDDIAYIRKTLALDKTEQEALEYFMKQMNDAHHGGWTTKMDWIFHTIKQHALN
T2 sequence (P27986 whole entry partner, species assumed): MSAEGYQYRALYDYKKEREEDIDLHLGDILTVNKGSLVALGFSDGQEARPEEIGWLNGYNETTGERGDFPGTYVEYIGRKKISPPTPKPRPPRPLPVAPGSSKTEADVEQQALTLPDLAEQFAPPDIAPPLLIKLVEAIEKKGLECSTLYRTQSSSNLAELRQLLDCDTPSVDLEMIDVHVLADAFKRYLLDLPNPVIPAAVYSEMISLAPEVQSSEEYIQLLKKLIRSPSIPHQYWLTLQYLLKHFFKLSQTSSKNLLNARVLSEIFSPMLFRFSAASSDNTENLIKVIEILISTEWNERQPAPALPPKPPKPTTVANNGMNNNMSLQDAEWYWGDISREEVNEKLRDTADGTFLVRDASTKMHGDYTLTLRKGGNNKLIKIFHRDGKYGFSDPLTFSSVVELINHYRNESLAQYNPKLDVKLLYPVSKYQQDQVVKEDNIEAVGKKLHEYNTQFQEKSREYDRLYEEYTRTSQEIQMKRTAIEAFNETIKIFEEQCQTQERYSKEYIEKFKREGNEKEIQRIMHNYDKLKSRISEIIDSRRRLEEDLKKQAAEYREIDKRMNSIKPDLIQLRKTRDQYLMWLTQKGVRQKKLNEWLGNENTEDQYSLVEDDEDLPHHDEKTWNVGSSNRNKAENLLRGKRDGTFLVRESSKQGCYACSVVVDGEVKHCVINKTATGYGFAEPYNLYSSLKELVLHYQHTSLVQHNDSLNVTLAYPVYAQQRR
Summary of the method: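 Sf9-expressed, Ni-purified p110/p85α (5 ng) with PIP2 was preincubated with compound for 60 min at room temperature in buffer with 40 mM MgCl2 and 5 mM DTT. The reaction ran 30 min at room temperature with 10 μM PIP2 and 10 μM ATP. The TR-FRET 665/615 nm ratio was used to derive IC50 from dose-response curves.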

pS6RP (S235/236) = experiment: In-cell Western assay, pS6RP (S235/236), PC3 cells; type: cell-based; details: Homo sapiens, PC-3, 2 hours incubation
Description: as §1

PI3Kα mutation E545K = PI3Kα mutation E545K (Homo sapiens, UniProt P42336, E545K); experiment: PI3 Kinase TR-FRET assay, PI3Kα mutation E545K; type: biochemical; details: read-out: inhibition of PI3Kα mutation E545K, IC50
Chain of PI3Kα mutation E545K (P42336 whole entry E545K, the tested form may be a part, canonical isoform): as the sequence (P42336 whole entry, species assumed) above, with E545K counted along it
Chain of PI3Kα mutation E545K (P27986 whole entry partner, the tested form may be a part, canonical isoform): as the sequence (P27986 whole entry partner, species assumed) above
Description: (§2) The ability of compounds of the invention to inhibit PI3K activity was determined in a homogeneous TR-FRET assay using a PI3K assay kit (Millipore, USA; cat #33-016) according to manufacturer's instructions. PI3-Kinases (isoforms α, β, γ and δ) catalyze the phosphorylation of phosphatidylinositol, PIP2 to PIP3 in the presence of ATP and Mg^2+. The PIP3 product is detected by displacement of biotin-PIP3 from an energy transfer complex consisting of Europium labeled anti-GST monoclonal antibody, a GST-tagged PH domain, biotinylated PIP3 and Streptavidin-APC. Excitation of Europium in the complex results in an energy transfer to the APC and a fluorescence emission at 665 nm. The PIP3 product displaces biotin-PIP3 from the complex resulting in a loss of energy transfer and thus a decrease in signal.
(§3) To test for the ability of compounds to inhibit the activity of PI3Kα (wild-type), exemplary compounds of formula (I) were dissolved in DMSO and directly distributed into 384-well plates at a volume of 0.5 μL. 14.5 μL of P110/P85α/PIP2 mixture in buffer (obtained from the Millipore kit) containing MgCl2 (40 mM) and DTT (5 mM) was added to compound wells and incubated for 60 minutes at room temperature. P110/P85α was expressed in SF9 insect cells and purified nickel column extraction. Five ng of wild-type P110/P85α was used in the assay. The kinase reaction was started by the addition of ATP. The assay concentrations of both PIP2 and ATP were 10 μM. The reaction mixture was incubated for 30 minutes at room temperature and was terminated by the addition of stop mix and detection mix. Fluorescence was measured at 615 and 665 nm upon excitation at 340 nm in a Victor™ V5 fluorometer (Perkin Elmer, USA). The fluorescence emission ratio at 665 to 615 nm, proportional to the kinase activity, was plotted against the compound concentration to generate dose-response curves and IC50 values were determined using GraphPad Prism® 5 software.
(§4) The activity of PI3Kα mutations H1047R and E545K were assayed in a similar manner to the assay protocol described above for PI3Kα (wild type). The compounds of formula (I) caused inhibition of PI3Kα mutations H1047R (a mutation associated with breast and gastric cancers) and E545K (a mutation associated with colorectal tumors, glioblastomas, gastric cancers, breast cancers, and lung cancers). For example, each of the compounds of Example 3, 7, 21, 47, 48 and 49 caused inhibition of each of the PI3Kα mutations H1047R and E545K with IC50 values<50 nM.

PI3 kinase isoform γ = PI3 kinase isoform γ (Homo sapiens, UniProt P48736); experiment: PI3 Kinase TR-FRET assay, isoform γ; type: biochemical; details: read-out: inhibition of PI3 kinase isoform γ, IC50
Description: as §2, §3
(§5) The activity of PI3 kinase isoforms β, γ and δ were assayed in a similar manner to the assay protocol described above for PI3Kα, by substituting the appropriate p110/p85 isoform for the p110α/p85α. Compounds of formula (I) caused inhibition of PI3 kinase isoforms β, γ and δ as determined by these assays. For example, the compounds of Examples 3 and 21 each caused inhibition of PI3 kinase isoform β with IC50 values<500 nM. The compounds of Examples 3, 7, 21, 47, 48 and 49 each caused inhibition of PI3 kinase isoform γ with IC50 values<500 nM. The compounds of Example 3, 7, 47, 48, and 49 caused inhibition of PI3 kinase isoform δ with IC50 values<1 μM.

PI3Kα mutation H1047R = PI3Kα mutation H1047R (Homo sapiens, UniProt P42336, H1047R); experiment: PI3 Kinase TR-FRET assay, PI3Kα mutation H1047R; type: biochemical; details: read-out: inhibition of PI3Kα mutation H1047R, IC50
Chain of PI3Kα mutation H1047R (P42336 whole entry H1047R): as the sequence (P42336 whole entry, species assumed) above, with H1047R counted along it
Chain of PI3Kα mutation H1047R (P27986 whole entry partner): as the sequence (P27986 whole entry partner, species assumed) above
Description: as §2, §3, §4

PI3 kinase isoform β = PI3 kinase isoform β (Homo sapiens, UniProt P42338); experiment: PI3 Kinase TR-FRET assay, isoform β; type: biochemical; details: read-out: inhibition of PI3 kinase isoform β, IC50
Description: as §2
To test for the ability of compounds to inhibit the activity of PI3Kα (wild-type), exemplary compounds of formula (I) were dissolved in DMSO and directly distributed into 384-well plates at a volume of 0.5 μL. […] Fluorescence was measured at 615 and 665 nm upon excitation at 340 nm in a Victor™ V5 fluorometer (Perkin Elmer, USA). The fluorescence emission ratio at 665 to 615 nm, proportional to the kinase activity, was plotted against the compound concentration to generate dose-response curves and IC50 values were determined using GraphPad Prism® 5 software. […]

PI3 kinase isoform δ = PI3 kinase isoform δ (Homo sapiens, UniProt O00329); experiment: PI3 Kinase TR-FRET assay, isoform δ; type: biochemical; details: read-out: inhibition of PI3 kinase isoform δ, IC50
Chain of PI3 kinase isoform δ (O00329 whole entry, canonical isoform): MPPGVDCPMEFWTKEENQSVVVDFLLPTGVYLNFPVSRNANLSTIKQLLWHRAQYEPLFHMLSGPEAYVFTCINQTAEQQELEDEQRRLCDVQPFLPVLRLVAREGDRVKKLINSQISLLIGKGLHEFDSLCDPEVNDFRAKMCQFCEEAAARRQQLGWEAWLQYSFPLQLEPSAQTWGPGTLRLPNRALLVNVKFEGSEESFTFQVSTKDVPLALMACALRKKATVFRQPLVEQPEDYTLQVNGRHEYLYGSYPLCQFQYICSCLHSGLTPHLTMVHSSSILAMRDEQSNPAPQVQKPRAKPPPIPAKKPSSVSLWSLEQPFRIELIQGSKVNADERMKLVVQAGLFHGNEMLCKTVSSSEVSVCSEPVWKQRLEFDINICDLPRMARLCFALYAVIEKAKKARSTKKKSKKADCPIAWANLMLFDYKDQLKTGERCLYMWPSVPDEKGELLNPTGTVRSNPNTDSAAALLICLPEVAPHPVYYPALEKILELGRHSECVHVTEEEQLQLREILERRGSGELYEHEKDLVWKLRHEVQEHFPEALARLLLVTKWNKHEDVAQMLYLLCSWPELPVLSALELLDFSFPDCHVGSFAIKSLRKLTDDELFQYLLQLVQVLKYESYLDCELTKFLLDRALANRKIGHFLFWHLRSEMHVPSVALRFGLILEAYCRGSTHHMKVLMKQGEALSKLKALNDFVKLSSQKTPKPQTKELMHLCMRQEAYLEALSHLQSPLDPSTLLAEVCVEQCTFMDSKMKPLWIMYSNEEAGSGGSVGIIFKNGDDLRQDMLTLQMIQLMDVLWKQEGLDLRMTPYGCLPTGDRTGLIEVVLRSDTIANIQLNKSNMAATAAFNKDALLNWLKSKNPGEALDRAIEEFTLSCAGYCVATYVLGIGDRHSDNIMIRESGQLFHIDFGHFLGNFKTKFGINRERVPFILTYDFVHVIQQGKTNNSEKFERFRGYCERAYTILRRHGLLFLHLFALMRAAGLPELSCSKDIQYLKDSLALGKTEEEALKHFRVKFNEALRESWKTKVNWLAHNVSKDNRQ
Chain of PI3 kinase isoform δ (P27986 whole entry partner, canonical isoform): as the sequence (P27986 whole entry partner, species assumed) above
Description: as §2, §3, §5

U87MG tumor cells = experiment: In vivo efficacy study (tumor growth suppression), U87MG xenograft; details: U87MG xenograft mice, after 12 to 14 days of dosing, 50 mg/kg qd po

Structure (SMILES) | IC50 (PC3 cells) [nM] | IC50 (pAkt(S473)) [nM] | IC50 (pAkt(T308)) [nM] | IC50 (mTOR kinase) [nM] | IC50 (PI3Kα (wild-type)) [nM] | IC50 (pS6RP (S235/236)) [nM] | IC50 (PI3Kα mutation E545K) [nM] | IC50 (PI3 kinase isoform γ) [nM] | IC50 (PI3Kα mutation H1047R) [nM] | IC50 (PI3 kinase isoform β) [nM] | IC50 (PI3 kinase isoform δ) [nM] | tumor growth inhibition relative to vehicle control group (U87MG tumor cells)
CS(=O)(=O)c1cccc(-c2ccc3c(N4CCOCC4)nc(-c4cnc(N)nc4)nc3c2)c1 [Example 1, 5-(7-(3-(Methylsulfonyl)phenyl)-4-morpholinoquinazolin-2-yl)pyrimidin-2-amine] | 501 to 5000 | 100 to 500 | 501 to 5000 | 50 to 200 | 50 to 200 | 100 to 500 |  |  |  |  |  | 
CS(=O)(=O)Nc1cccc(-c2cnc3c(N4CCOCC4)nc(-c4cnc(N)nc4)nc3c2)c1 [Example 21, N-(3-(2-(2-amino-pyrimidin-5-yl)-4-morpholinopyrido[3,2-d]-pyrimidin-7-yl)phenyl)-methanesulfonamide] | < 100 | 100 to 500 | 100 to 500 | < 50 | < 50 |  | < 50 | < 500 | < 50 | < 500 |  | 
Cn1cc(-c2cnc3c(N4CCOCC4)nc(-c4cnc(N)nc4)nc3c2)cn1 [Example 22, 5-(7-(1-methyl-1H-pyrazol-4-yl)-4-morpholinopyrido[3,2-d]-pyrimidin-2-yl)pyrimidin-2-amine] | < 100 | 501 to 5000 | 100 to 500 | < 50 | < 50 | 100 to 500 |  |  |  |  |  | 
Nc1ncc(-c2nc(N3CCOCC3)c3ncc(-c4cccnc4F)cc3n2)cn1 [Example 24, 5-(7-(2-fluoropyridin-3-yl)-4-morpholino-pyrido[3,2-d]pyrimidin-2-yl)pyrimidin-2-amine] | 100 to 500 | 501 to 5000 | 100 to 500 | 50 to 200 | < 50 | 100 to 500 |  |  |  |  |  | 
CC(=O)OC(C)OC(=O)N(C(C)=O)c1cccc(-c2cnc3c(N4CCOCC4)nc(-c4cnc(N)nc4)nc3c2)c1 (stereo not drawn) [Example 120, 1-((acetyl(3-(2-(2-amino-pyrimidin-5-yl)-4-morpholinopyrido[3,2-d]-pyrimidin-7-yl)-phenyl)carbamoyl)oxy) ethyl acetate] |  |  |  |  |  |  |  |  |  |  |  | more than 70%

Now from value to compound, other results behind:

IC50 (PC3 cells) [nM] | IC50 (pAkt(S473)) [nM] | IC50 (pAkt(T308)) [nM] | IC50 (mTOR kinase) [nM] | IC50 (PI3Kα (wild-type)) [nM] | IC50 (pS6RP (S235/236)) [nM] | IC50 (PI3Kα mutation E545K) [nM] | IC50 (PI3 kinase isoform γ) [nM] | IC50 (PI3Kα mutation H1047R) [nM] | IC50 (PI3 kinase isoform β) [nM] | IC50 (PI3 kinase isoform δ) [nM] | Structure (SMILES) | tumor growth inhibition relative to vehicle control group (U87MG tumor cells)
100 to 500 |  | < 100 | < 50 | < 50 |  | < 50 | < 500 | < 50 |  | < 1000 | C[C@H](O)C(=O)Nc1cccc(-c2cnc3c(N4CCOCC4)nc(-c4cnc(N)nc4)nc3c2)c1 [Example 47, (S)-N-(3-(2-(2-amino-pyrimidin-5-yl)-4-morpholinopyrido[3,2-d]pyrimidin-7-yl)phenyl)-2-hydroxypropanamide] | 
100 to 500 |  | 100 to 500 | < 50 | < 50 |  | < 50 | < 500 | < 50 |  | < 1000 | CC(C)(O)C(=O)Nc1cccc(-c2cnc3c(N4CCOCC4)nc(-c4cnc(N)nc4)nc3c2)c1 [Example 48, N-(3-(2-(2-amino-pyrimidin-5-yl)-4-morpholinopyrido[3,2-d]pyrimidin-7-yl)phenyl)-2-hydroxy-2-methylpropanamide] | 
< 100 | < 100 | 100 to 500 | < 50 | < 50 | < 100 | < 50 | < 500 | < 50 |  | < 1000 | CC(C)(C#N)C(=O)Nc1cccc(-c2cnc3c(N4CCOCC4)nc(-c4cnc(N)nc4)nc3c2)c1 [Example 49, N-(3-(2-(2-amino-pyrimidin-5-yl)-4-morpholinopyrido[3,2-d]pyrimidin-7-yl)phenyl)-2-cyano-2-methylpropanamide] | 
< 100 | < 100 | < 100 | < 50 | < 50 | < 100 |  |  |  |  |  | CC(=O)Nc1cccc(-c2cnc3c(N4CCOCC4)nc(-c4cnc(N)nc4)nc3c2)c1F [Example 52, N-(3-(2-(2-amino-pyrimidin-5-yl)-4-morpholinopyrido[3,2-d]pyrimidin-7-yl)-2-fluorophenyl)acetamide] | 
100 to 500 | < 100 | 100 to 500 | < 50 | < 50 | < 100 |  |  |  |  |  | Cc1ccc(C(=O)Nc2cccc(-c3cnc4c(N5CCOCC5)nc(-c5cnc(N)nc5)nc4c3)c2)o1 [Example 59, N-(3-(2-(2-amino-pyrimidin-5-yl)-4-morpholinopyrido[3,2-d]pyrimidin-7-yl)phenyl)-5-methylfuran-2-carboxamide] | 
< 100 | 100 to 500 | < 100 | < 50 | < 50 | < 100 |  |  |  |  |  | CC(=O)Nc1cc(-c2cnc3c(N4CCOCC4)nc(-c4cnc(N)nc4)nc3c2)ccc1F [Example 119, N-(5-(2-(2-amino-pyrimidin-5-yl)-4-morpholinopyrido[3,2-d]-pyrimidin-7-yl)-2-fluorophenyl)acetamide] | 
